Data reported in patent US20260091020A1, “TREATMENT OF ACUTE CANNABINOID OVERDOSE” (Anebulo Pharmaceuticals, Inc., priority 2022, published 2026).
Like-named read-outs stand apart in the source and are kept apart here.

Test: Plasma PK of ANEB-001 and THC, 50 and 100 mg oral Compound 1 with THC (Example 2)
Assay type: in vivo, human
Conditions: for concentration at 0 h / concentration at 0.33 h / concentration at 0.67 h / concentration at 1 h / concentration at 2 h / concentration at 3 h / concentration at 4 h / concentration at 5 h / concentration at 24 h / AUC(0-t) / Cmax / Tmax: human, in vivo; for Tmax: read-out: THC plasma tmax, Median
Method: A phase 2 clinical study was conducted using the design outlined in FIG. 1. Briefly, 60 adult healthy volunteers ages 18-45 (20 per arm) were selected for a randomized, double blind placebo-controlled study. Volunteers were divided into three groups: (1) THC (Δ9-Tetrahydrocannabinol, 10.5 mg)+placebo; (2) THC (10.5 mg)+Compound 1 (50 mg); and (3) THC (10.5 mg)+Compound 1 (100 mg). […] A followup evaluation was also performed after 14 days. Primary endpoints included inhibition of central nervous system effects of THC using (a) visual analog scale “feeling high”; (b) visual analog scale “alertness”; (c) body sway; (d) heart rate. Secondary endpoints included additional efficacy metrics, safety/tolerability, PK, and PK/PD correlations.
Following the general methods of Example 1, pharmacodynamic properties were measured for Compound 1 (FIGS. 13A-13F).

[1] = 10 mg THC + 50 mg ANEB-001, read-out: THC Concentration in Plasma, Mean
[2] = 10 mg THC + 50 mg ANEB-001, read-out: THC Concentration in Plasma, Median
[3] = 10 mg THC + 100 mg ANEB-001, read-out: THC Concentration in Plasma, Mean
[4] = 10 mg THC + 100 mg ANEB-001, read-out: THC Concentration in Plasma, Median
[5] = 10 mg THC + Placebo, read-out: THC Concentration in Plasma, Mean
[6] = 10 mg THC + Placebo, read-out: THC Concentration in Plasma, Median

With CCCCCc1cc(O)c2c(c1)OC(C)(C)[C@@H]1CCC(C)=C[C@@H]21 [THC, Δ9-tetrahydrocannabinol] the “THC plasma tlag, Median” value (10 mg THC + 50 mg ANEB-001) was 0.00 h, the “THC plasma AUClast, Mean” value (10 mg THC + 100 mg ANEB-001) was 6.128 ng·h/mL and the “THC plasma tlag, Median” value (10 mg THC + 100 mg ANEB-001) was 0.00 h. For the same molecule, the “THC plasma AUClast, Mean” value (10 mg THC + Placebo) was 5.722 ng·h/mL, the “THC plasma Cmax, Median” value (10 mg THC + Placebo) was 2.81 ng/mL and the “THC plasma tlag, Median” value (10 mg THC + Placebo) was 0.00 h. For the same molecule, the concentration at 0 h [1] was 0 ng/mL, the concentration at 0 h [2] was 0 ng/mL and the concentration at 0.33 h [1] was 1.27 ng/mL. The concentration at 0.33 h [2] was 0.738 ng/mL, the concentration at 0.67 h [1] was 2.9 ng/mL and the concentration at 0.67 h [2] was 2.41 ng/mL. The concentration at 1 h [1] was 2.76 ng/mL, the concentration at 1 h [2] was 2.6 ng/mL and the concentration at 2 h [1] was 1.4 ng/mL. For the same molecule, the concentration at 2 h [2] was 1.18 ng/mL, the concentration at 3 h [1] was 0.721 ng/mL and the concentration at 3 h [2] was 0.689 ng/mL. For the same molecule, the concentration at 4 h [1] was 0.432 ng/mL, the concentration at 4 h [2] was 0.379 ng/mL and the concentration at 5 h [1] was 0.287 ng/mL. It also gave a concentration at 5 h [2] of 0.264 ng/mL, a concentration at 24 h [1] of 0.00555 ng/mL and a concentration at 24 h [2] of 0 ng/mL. For the same molecule, the AUC(0-t) (10 mg THC + 50 mg ANEB-001, read-out: THC plasma AUClast, Geometric Mean) was 5.65 ng·h/mL, the AUC(0-t) (10 mg THC + 50 mg ANEB-001, read-out: THC plasma AUClast, Mean) was 5.98 ng·h/mL and the AUC(0-t) (10 mg THC + 50 mg ANEB-001, read-out: THC plasma AUClast, Median) was 5.51 ng·h/mL. For the same molecule, the Cmax (10 mg THC + 50 mg ANEB-001, read-out: THC plasma Cmax, Geometric Mean) was 3.14 ng/mL, the Cmax (10 mg THC + 50 mg ANEB-001, read-out: THC plasma Cmax, Mean) was 3.4 ng/mL and the Cmax (10 mg THC + 50 mg ANEB-001, read-out: THC plasma Cmax, Median) was 3.12 ng/mL. It also gave a Tmax (10 mg THC + 50 mg ANEB-001) of 1 h, a concentration at 0 h [3] of 0 ng/mL and a concentration at 0 h [4] of 0 ng/mL. The concentration at 0.33 h [3] was 1.72 ng/mL, the concentration at 0.33 h [4] was 0.986 ng/mL and the concentration at 0.67 h [3] was 3.54 ng/mL. For the same molecule, the concentration at 0.67 h [4] was 2.41 ng/mL, the concentration at 1 h [3] was 2.7 ng/mL and the concentration at 1 h [4] was 1.88 ng/mL. It also gave a concentration at 2 h [3] of 1.28 ng/mL, a concentration at 2 h [4] of 1.05 ng/mL and a concentration at 3 h [3] of 0.718 ng/mL. It also gave a concentration at 3 h [4] of 0.639 ng/mL, a concentration at 4 h [3] of 0.446 ng/mL and a concentration at 4 h [4] of 0.35 ng/mL. The concentration at 5 h [3] was 0.314 ng/mL, the concentration at 5 h [4] was 0.228 ng/mL and the concentration at 24 h [3] was 0.006 ng/mL. It also gave a concentration at 24 h [4] of 0 ng/mL, an AUC(0-t) (10 mg THC + 100 mg ANEB-001, read-out: THC plasma AUClast, Geometric Mean) of 5.3 ng·h/mL and an AUC(0-t) (10 mg THC + 100 mg ANEB-001, read-out: THC plasma AUClast, Median) of 4.94 ng·h/mL. The Cmax (10 mg THC + 100 mg ANEB-001, read-out: THC plasma Cmax, Geometric Mean) was 3.08 ng/mL, the Cmax (10 mg THC + 100 mg ANEB-001, read-out: THC plasma Cmax, Mean) was 3.77 ng/mL and the Cmax (10 mg THC + 100 mg ANEB-001, read-out: THC plasma Cmax, Median) was 2.46 ng/mL. It also gave a Tmax (10 mg THC + 100 mg ANEB-001) of 0.67 h, a concentration at 0 h [5] of 0 ng/mL and a concentration at 0 h [6] of 0 ng/mL. For the same molecule, the concentration at 0.33 h [5] was 1.17 ng/mL, the concentration at 0.33 h [6] was 0.776 ng/mL and the concentration at 0.67 h [5] was 2.29 ng/mL. For the same molecule, the concentration at 0.67 h [6] was 1.81 ng/mL, the concentration at 1 h [5] was 2.49 ng/mL and the concentration at 1 h [6] was 2.27 ng/mL. The concentration at 2 h [5] was 1.44 ng/mL, the concentration at 2 h [6] was 1.6 ng/mL and the concentration at 3 h [5] was 1.01 ng/mL. It also gave a concentration at 3 h [6] of 0.838 ng/mL, a concentration at 4 h [5] of 0.455 ng/mL and a concentration at 4 h [6] of 0.443 ng/mL. For the same molecule, the concentration at 5 h [5] was 0.285 ng/mL, the concentration at 5 h [6] was 0.248 ng/mL and the concentration at 24 h [5] was 0 ng/mL. The concentration at 24 h [6] was 0 ng/mL, the AUC(0-t) (10 mg THC + Placebo, read-out: THC plasma AUClast, Geometric Mean) was 5.16 ng·h/mL and the AUC(0-t) (10 mg THC + Placebo, read-out: THC plasma AUClast, Median) was 4.96 ng·h/mL. For the same molecule, the Cmax (10 mg THC + Placebo, read-out: THC plasma Cmax, Geometric Mean) was 2.76 ng/mL, the Cmax (10 mg THC + Placebo, read-out: THC plasma Cmax, Mean) was 3.15 ng/mL and the Tmax (10 mg THC + Placebo) was 1 h.
